This passage reports inhibition, IC50 and inhibition in vivo results from patent US5489598A, “Cytoprotection utilizing aryltriazol-3-thiones” (Warner-Lambert Company, priority 1994, dated 1996).

One assay deals with T1, Mac-1 (CD11b/CD18) (Homo sapiens, UniProt P05107+P11215).
T1 construct: methodology to isolate neutrophils from ethylenediaminetetraacetic acid (EDTA)-treated venous blood obtained from healthy human volunteers; endogenous in cells; host or cells: neutrophils (PMN) freshly isolated from venous blood of healthy human volunteers
T1 sequence (P05107 23-769, other chains not shown): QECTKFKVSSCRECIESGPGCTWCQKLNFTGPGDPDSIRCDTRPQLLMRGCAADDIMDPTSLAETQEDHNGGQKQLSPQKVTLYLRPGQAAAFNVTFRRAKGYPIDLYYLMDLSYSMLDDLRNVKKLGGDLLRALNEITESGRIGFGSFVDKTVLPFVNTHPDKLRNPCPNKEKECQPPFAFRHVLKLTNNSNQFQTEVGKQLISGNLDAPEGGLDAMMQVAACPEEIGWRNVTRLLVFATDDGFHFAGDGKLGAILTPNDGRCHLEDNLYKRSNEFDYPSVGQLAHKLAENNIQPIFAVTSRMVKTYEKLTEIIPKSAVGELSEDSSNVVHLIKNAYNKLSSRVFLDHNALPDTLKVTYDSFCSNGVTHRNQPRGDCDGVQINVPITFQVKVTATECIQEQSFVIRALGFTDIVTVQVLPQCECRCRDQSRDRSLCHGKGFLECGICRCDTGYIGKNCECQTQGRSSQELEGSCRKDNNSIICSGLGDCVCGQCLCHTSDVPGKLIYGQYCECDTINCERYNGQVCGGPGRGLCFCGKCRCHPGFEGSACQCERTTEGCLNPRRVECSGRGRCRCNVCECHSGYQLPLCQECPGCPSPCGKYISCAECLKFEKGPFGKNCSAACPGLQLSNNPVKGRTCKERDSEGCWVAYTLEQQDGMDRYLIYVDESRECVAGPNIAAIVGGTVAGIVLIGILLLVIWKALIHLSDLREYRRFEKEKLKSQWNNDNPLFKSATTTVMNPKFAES
Nature of the assay: Human Neutrophil Mac-1 Adhesion Assay (PMN KLH). The format is cell-based. As to conditions: human neutrophils, FMLP-stimulated, KLH coated plates. The protocol: Protocol for Human Neutrophil Mac-1 Adhesion Assay
We evaluated several 5-aryltriazol-3-thiones utilizing methodology similar to that of Ferrante and Thong as described in J. Immunol. […] Namely, we utilized Ferrante and Thong's methodology to isolate neutrophils from ethylenediaminetetraacetic acid (EDTA)-treated venous blood obtained from healthy human volunteers. Keyhole limpet hemocyanin (KLH) coated microtiter plates were prepared as follows:
All pipetting was automated using the Cetus Pro/Pette (Perkin-Elmer; division of Applied Biosystems, Foster, Calif.). KLH, Megathura crenulata; Calbiochem-Novabiochem, La Jolla, Calif., was prepared at a concentration of 0.5 mg/mL in Dulbecco's PBS phosphate buffered saline (PBS) with CA++, pH 7.2 (DPBS).
Microtiter plates are prewashed with 50% EtOH for 1 hour at 37° C., then drained and blotted to dryness. Then 0.3 mL KLH solution was pipetted into each well of the 96 well microtiter plate, covered and incubated overnight at 37° C. Plates are then inverted to drain, blotted to dryness, washed with 0.3 mL cold D-PBS, drained, blotted to dryness, then stored at 4° C. until use.
Procedure for PMN KLH (Mac-1 Adhesion Assay)
On the Pro/Pette system, a treatment plate was placed in plate position 1 (P-1), buffer Micro.trof was placed in plate position 2 (P-2), and a single row of tips in a spare magazine are placed in the tip position on the carriage. Two hundred ten μL aliquots D-PBS are pipetted into all wells (105 μL using Cetus File #18, Micro.trof 3, no mixes, tip row H, no tip change, run twice). Drug plate was placed in plate position 2 (P-2). Donor drug plates were prepared to contain buffer or drug in appropriate wells. Thirty μL drug or D-PBS buffer are pipetted into appropriate wells in the treatment plate in position 1 (P-1) (Cetus File #17, one mix before and after, changing tips) from donor plate. Thirty μL of neutrophils (PMNs) (30 μL of 10^7 cells/mL) were next pipetted from either a Micro.trof 1, position 2 (P-2), or a row of 0.5 mL capacity microcentrifuge tubes (Sarstedt RIA vials) to plate 1 using Cetus File #18, changing tips, one mix (50 μL) before and after. Cells and drug were then incubated for 10 minutes at 37° C. Agonist (e.g., FMLP) or D-PBS buffer (30 μL) were next pipetted to appropriate wells using Cetus File #18 (Micro.trof) or Cetus File #42 (for plate to plate), changing tips and one mix before and after. Cell/drug/agonist mixture was then incubated for 60 minutes at 37° C. After the incubation period, the treatment plate is gently inverted to drain, blotted lightly to dryness on a paper towel. The treatment plate is then washed with 300 μL D-PBS buffer using Cetus File #18, using pump at slow speed, again inverted to drain, and again blotted to dryness. Adherent cells are stained by the addition of 150 μL D-PBS buffer to all wells, using Cetus File #18, Micro.trof 3 no tip change. […] The treatment plate is then incubated overnight at 37° C.
After overnight incubation, the treatment plate is gently inverted to drain, blotted to dryness on paper towel, then gently washed with 300 μL D-PBS buffer using Cetus File #18, using pump at slow sped. The treatment plate is then gently inverted to drain, and blotted to dryness. The washing of the treatment plate is repeated until all excess dye is removed.
The treatment plate is then covered and incubated for 60 minutes at 37° C. After the incubation, 150 μL 50% EtOH is added to each well of the treatment plate using Cetus File #18, Micro.trof 3, mixing three times, changing tips. […]
a. mean unstimulated cell control OD is determined and subtracted from all other values b. mean net stimulated, e.g., FMLP, control values are determined c. mean drug values are determined and percent drug inhibition vs. stimulus control are calculated as follows: [formula] d. IC50 determinations, plotting logdose vs. percent inhibition, are determined by linear regression analysis using the least squares method.

Assay [1] has as its system gastric damage (acidified aspirin). Nature of the assay: Cytoprotection study: gastric damage by oral acidified aspirin. Format: in vivo, Sprague-Dawley rats. As to conditions: Rattus norvegicus; 1 mg/kg PO, 15 min before oral acidified aspirin 288 mg/kg; female rats. The protocol:
Protocol for Cytoprotection Studies
For all studies, random-bred, barrier-raised, SPF, female Sprague-Dawley rats (Charles River Laboratories, Portage, Mich.) weighing 180-300 g were used. Animals were acclimated for at least 1 week prior to the studies and housed in wire bottom cages supplied with macrofiltered fresh tap water and Purina Rat Chow #5012 (Purina Mills Inc., Richmond, Ind.) ad libitum. The animal rooms were kept at 22° C.±1° C. and 50% humidity.
All animals were food fasted for 24 hours and water deprived for 2 or more hours prior to treatment administration. For oral dosing, Aspirin (acetylsalicylic acid, Sigma, St. Louis, Mo.) was dissolved in an aqueous solution of 150 mM HCl (Takeucvhi K., Digestive Disease and Science, 35:178-185 (1990)). Misoprostol was used as a standard. The test compound was dissolved in double glass distilled water, normal saline USP (NS) or the misoprostol phosphate buffer vehicle. All oral doses of misoprostol and test compounds were administered in a volume of 1 mL/animal. All oral dosing was done by gavage using a 3 mL syringe attached to a […], 17 gauge gavage needle.
The test compounds were administered in 1 mL 15 minutes prior to treatment with an oral dose of acidified aspirin (288 mg/kg in 150 mM HCl) given in 1 mL. Stomachs were removed to assess gastric damage 30 minutes after exposure to the damaging agent. The stomach was isolated through a midline incision in the abdomen followed by clamping of the esophagus and duodenum. Seven milliliters of 10% formalin (Fisher Scientific, Fair Lawn, N.J.) was injected into the stomach which was then excised and submerged in formalin for at least 10 minutes. The stomach was then opened along the greater curvature and pinned flat and submerged in formalin overnight. After the forestomach and exterior blood vessels were trimmed away, the tissues were clarified with glycerol (E. M. Science, Gibbstown, N.J.) and flattened between Plexiglass plates. Gastric damage was measured with a Cambridge Instruments LTD., (Cambridge, UK) Quantimet 970 Image Analysis System. Hemorrhagic damage appeared as darkened areas on a background of lighter undamaged tissue. This darker area was detected and surface area measured by the image analyzer. In addition, the complete stomachs were also completely submerged in 0.1N solution of iodine (J. T. Baker Chemical Co., Phillipsburg, N.J.), and the total stomach surface area was determined. The system was calibrated prior to each use with a standard sample. The percent damage and percent protection was computed by the following equation: [formula]

On to `CCn1c(-c2ccc(N)cc2)n[nH]c1=S` [Example 2, 5-(4-aminophenyl)-4-ethyl-2,4-dihydro-[1,2,4]triazol-3-thione], for which the inhibition at 33 µM on Mac-1 (CD11b/CD18) was 36.9%.

Turning to `CCn1c(-c2ccc(O)cc2)n[nH]c1=S` [Example 4, 5-(4-hydroxyphenyl)-4-ethyl-2,4-dihydro-[1,2,4]triazol-3-thione], the IC50 against Mac-1 (CD11b/CD18) turned out to be 7.8 µM.

Regarding `CCn1c(S)nnc1-c1ccccc1O` [Example 5, 5-(2-hydroxyphenyl)-4-ethyl-2,4-dihydro-[1,2,4]triazol-3-thione], on Mac-1 (CD11b/CD18), the IC50 came to 4.3 µM.

As for `CCn1c(-c2cc(Cl)ccc2N)n[nH]c1=S` [Example 6, 5-(2-amino-5-chlorophenyl)-4-ethyl-2,4-dihydro-[1,2,4]triazol-3-thione], the midpoint of inhibition at Mac-1 (CD11b/CD18), the IC50, lay at 0.8 µM. In assay [1], this compound had an inhibition in vivo at 1 mg/kg of 55.1%.

In the case of `CCn1c(-c2cc(OC)c(OC)cc2N)n[nH]c1=S` [Example 7, 5-(2-amino-4,5-dimethoxyphenyl)-4-ethyl-2,4-dihydro-[1,2,4]triazol-3-thione], the 50% inhibitory concentration (IC50) at Mac-1 (CD11b/CD18) was 7.1 µM.

At Mac-1 (CD11b/CD18), `CCn1c(-c2ccc(OC)cc2)n[nH]c1=S` [Example 11, 5-(4-methoxyphenyl)-4-ethyl-2,4-dihydro-[1,2,4]triazol-3-thione] displayed an IC50 of 1.6 µM. For the same compound, 1 mg/kg produced 32.2% inhibition in vivo in assay [1].

`CCn1c(-c2ccc(Cl)cc2Cl)n[nH]c1=S` [Example 12, 5-(2,4-chlorophenyl)-4-ethyl-2,4-dihydro-[1,2,4]triazol-3-thione]: the IC50 at Mac-1 (CD11b/CD18) amounted to 2.1 µM. For the same compound, in assay [1], the inhibition in vivo at 1 mg/kg was found to be 59.4%.

On to `CCn1c(-c2ccc(OC)c(OC)c2)n[nH]c1=S` [Example 16, 5-(3,4-dimethoxyphenyl)-4-ethyl-2,4-dihydro-[1,2,4]triazol-3-thione], for which 3.1 µM corresponded to half-maximal inhibition at Mac-1 (CD11b/CD18) (IC50). The compound further yielded an inhibition in vivo at 1 mg/kg in assay [1] of 62.2%.

At Mac-1 (CD11b/CD18), `Cc1ccccc1-c1n[nH]c(=S)n1-c1ccccc1` [Example 22, 5-(2-methylphenyl)-2,4-dihydro-4-phenyl-3H-[1,2,4]-triazol-3-thione] registered a half-maximal inhibitory concentration (IC50) of 0.2 µM. This counts as sub-micromolar.

`Sc1nnc(-c2ccccc2)n1-c1ccccc1` [Example 23, 2,4-dihydro-4,5-diphenyl-3H-[1,2,4]-triazol-3-thione]: it took 1.1 µM to reach half-maximal inhibition on Mac-1 (CD11b/CD18) (IC50). For the same compound, the inhibition in vivo at 1 mg/kg in assay [1] amounted to 21.4%.

On Mac-1 (CD11b/CD18), `COc1ccccc1-c1n[nH]c(=S)n1-c1ccccc1` [Example 24, 5-(2-methoxyphenyl)-2,4-dihydro-4-phenyl-3H-[1,2,4]-triazol-3-thione] returned a half-maximal inhibitory concentration (IC50) of 2.5 µM.

On Mac-1 (CD11b/CD18), `Sc1nnc(-c2ccccc2)n1Cc1ccccc1` [Example 25, 2,4-dihydro-5-phenyl-4-(phenylmethyl)-3H-[1,2,4]-triazol-3-thione] came in with an IC50 of 8.1 µM. This IC50 lies about 3.2-fold higher than the previous one.

In turn, `COc1ccc(-c2n[nH]c(=S)n2-c2ccccc2)cc1OC` [Example 26, 5-(3,4-dimethoxyphenyl)-2,4-dihydro-4-phenyl-3H-1,2,4-triazol-3-thione] gave an IC50 against Mac-1 (CD11b/CD18) of 0.8 µM.

For the compound `Oc1ccc(-c2n[nH]c(=S)n2-c2ccccc2)cc1` [Example 27, 5-(4-hydroxyphenyl)-2,4-dihydro-4-phenyl-3H-[1,2,4]-triazol-3-thione], the inhibition at 33 µM on Mac-1 (CD11b/CD18) is 6%.

On to `COc1cccc(-c2n[nH]c(=S)n2-c2ccccc2)c1` [Example 28, 5-(3-methoxyphenyl)-2,4-dihydro-4-phenyl-3H-[1,2,4]-triazol-3-thione], for which the inhibition at 33 µM against Mac-1 (CD11b/CD18) is 60%.

Take `Oc1ccc(-c2n[nH]c(=S)n2Cc2ccccc2)cc1` [Example 29, 5-(4-hydroxyphenyl)-2,4-dihydro-4-phenylmethyl-3H-[1,2,4]-triazol-3-thione]: on Mac-1 (CD11b/CD18), the inhibition at 33 µM is 42%.

Regarding `Nc1ccc(-c2n[nH]c(=S)n2-c2ccccc2)cc1` [Example 31, 5-(4-aminophenyl)-2,4-dihydro-4-phenyl-3H-[1,2,4]-triazol-3-thione], at Mac-1 (CD11b/CD18), the inhibition at 33 µM is 15%.

In turn, `COc1ccc(-c2n[nH]c(=S)n2C)cc1OC` [Example 32, 5-(3,4-dimethoxyphenyl)-2,4-dihydro-4-methyl-3H-[1,2,4]-triazol-3-thione] had an IC50 against Mac-1 (CD11b/CD18) of 1.5 µM. The compound further displayed an inhibition in vivo at 1 mg/kg in assay [1] of 21.6%.

Regarding `COc1ccc(-c2n[nH]c(=S)n2-c2ccccc2)cc1` [Example 33, 5-(4-methoxyphenyl)-2,4-dihydro-4-phenyl-3H-[1,2,4]-triazol-3-thione], 4.1 µM corresponded to half-maximal inhibition at Mac-1 (CD11b/CD18) (IC50).

Turning to `S=c1nc(-c2ccccc2)[nH][nH]1` [Example 34, 1,2-dihydro-5-phenyl-3H-[1,2,4]-triazol-3-thione], at Mac-1 (CD11b/CD18), the inhibition at 33 µM stood at 58%.

In the case of `Nc1ccccc1-c1n[nH]c(=S)n1-c1ccccc1` [Example 35, 5-(aminophenyl)-2,4-dihydro-4-phenyl-3H-[1,2,4]-triazol-3-thione], the inhibition at 33 µM at Mac-1 (CD11b/CD18) is 24%.

With `CCn1c(-c2ccccc2N)n[nH]c1=S` [Example 36, 5-(2-aminophenyl)-4-ethyl-2,4-dihydro-[1,2,4]triazol-3-thione], on Mac-1 (CD11b/CD18), half-maximal inhibition (IC50) was put at 0.4 µM. Besides, in assay [1], testing at 1 mg/kg gave an inhibition in vivo of 53.7%.

For `CNc1ccccc1-c1n[nH]c(=S)n1-c1ccccc1` [Example 37, 5-(2-methylaminophenyl)-4-phenyl-2,4-dihydro-[1,2,4]triazol-3-thione], the inhibition at 33 µM at Mac-1 (CD11b/CD18) was determined as 7%.

Regarding `Cn1c(-c2ccccc2N)n[nH]c1=S` [Example 38, 5-(2-Aminophenyl)-2,4-dihydro-4-methyl-4H-[1,2,4]triazol-3-thione], the inhibition at 33 µM at Mac-1 (CD11b/CD18) is -0.1%. In assay [1], this compound showed an inhibition in vivo at 1 mg/kg of 51.2%.

`Nc1ccccc1-c1n[nH]c(=S)n1N` [Example 39, 4-Amino-5-(2-aminophenyl)-2,4-dihydro-3H-[1,2,4]triazol-3-thione]: the inhibition at 33 µM at Mac-1 (CD11b/CD18) came to 57%.
